From US11672775B2, “Treprostinil prodrugs” (United Therapeutics Corporation, priority 2016, dated 2023)

Key:
[1] = in vitro; conditions: monkey, liver microsomes, pH 7.4
[2] = In vitro metabolic stability in liver microsomes; conditions: Rat
[3] = In vitro metabolic stability in liver microsomes; conditions: Monkey; +NADPH
[4] = tested on: Sprague Dawley rats; experiment: Rat intraplantar injection model, thermal pain sensitivity (Example 9); assay type: in vivo, Sprague Dawley rat; conditions: 100 μg/mL; both time points
Experimental: (§1) Male Sprague Dawley rats (n=112) were allocated into 14 groups of 8/group. The study was run in 2 cycles, on consecutive days, 7 groups per cycle. Each cycle was composed of a Saline group, PBS group, which served as the control, and also treprostinil at a dose of 100 μg/mL or 1 μg/mL.
(§2) Animals were administered 0.1 mL of test material by subcutaneous injection into the paw pad (Intraplantar injection) at time zero. Animals were subsequently evaluated for their response to mechanical (von Frey filaments) and thermal stimuli, 15 and 90 minutes post-injection. The von Frey test was conducted prior to the thermal test, which followed immediately within minutes for each animal. In addition, clinical observation scoring of the animal's reaction to injection was conducted. FIG. 16 schematically illustrates the study design.
(§3) The sensitivity of animals to a thermal pain stimulus was assessed immediately following the von Frey test. The time until withdrawal of the right-injected leg from a heat source was measured, and the lower (faster) the time of response represents a greater sensitivity to the stimulus. The test was performed 15 and 90 minutes post-Test Item injection.

[5] = tested on: Sprague Dawley rats; experiment: Rat intraplantar injection model, clinical observation score (Example 10); assay type: in vivo, Sprague Dawley rat; conditions: 1 μg/mL; both time-points; compared with similar dose of treprostinil
Experimental: (§4) Male Sprague Dawley rats (n=56) were allocated into 7 groups of 8 animals per group. […] Each group was compared to the phosphate buffer (50-mM phosphate buffer with 50-mM sodium chloride at pH=7.4) treated group, which served as the control (Group 1).
as §2, with “zero. Then, the animals” for “zero. Animals”, “conducted.” for “conducted. FIG. 16 schematically illustrates the study design.”
A clinical observation score was assigned by assessing for redness, swelling and paw placement.

[6] = tested on: Sprague Dawley rats; experiment: Rat intraplantar injection model, von Frey test (Example 9); assay type: in vivo, Sprague Dawley rat; conditions: for von Frey withdrawal force threshold vs PBS-treated group: both time points post-injection
Experimental: as §1, §2
Mechanical pain sensitivity was tested using the von Frey test, which measures the withdrawal force threshold of the animals. The lower the force applied represents a greater sensitivity to the stimulus. The von Frey test was performed 15 and 90 minutes post-Test Item injection.

[7] = tested on: Sprague Dawley rats; experiment: Rat intraplantar injection model, thermal pain sensitivity (Example 10); assay type: in vivo, Sprague Dawley rat
Experimental: as §4
as §2, with “zero. Then, the animals” for “zero. Animals”, “conducted.” for “conducted. FIG. 16 schematically illustrates the study design.”
as §3, with “post-test item” for “post-Test Item”

[8] = tested on: Sprague Dawley rats; experiment: Rat intraplantar injection model, clinical observation score (Example 9); assay type: in vivo, Sprague Dawley rat
Experimental: as §1, §2
A Clinical observation score was assigned by assessing for redness, swelling and paw placement.

[9] = tested on: Sprague Dawley rats; experiment: Cardiovascular assessment by radiotelemetry following subcutaneous injection (Example 12); assay type: in vivo, Sprague Dawley rat
Experimental: (§5) Clinical observations were performed at approximately 6 hours prior to dosing, at the completion of dosing and at approximately 4 hours postdosing.

[10] = tested on: Sprague Dawley rats; experiment: Clinical observations following subcutaneous injection (Example 12); assay type: in vivo, Sprague Dawley rat; conditions: 3, 10, or 30 mg/kg SC; some animals; approximately 4 hours
Experimental: as §5

[11] = tested on: Sprague Dawley rats; experiment: Rat intraplantar injection model, von Frey test (Example 10); assay type: in vivo, Sprague Dawley rat; conditions: 1 μg/mL or 100 μg/mL; 15 and 90 minutes post-injection
Experimental: as §4
as §2, with “zero. Then, the animals” for “zero. Animals”, “conducted.” for “conducted. FIG. 16 schematically illustrates the study design.”
Mechanical pain sensitivity was tested using the von Frey test, which measures the withdrawal force threshold of the animals. The lower the force applied represents a greater sensitivity to the stimulus. The von Frey test was performed 15 and 90 minutes post-test item injection.

[12] = only the 1 μg/mL dose, both time points

CCOc1ccc2ccc(=O)oc2c1 [Prodrug 7-EC, 7-ethoxycoumarin]
half-life at 500 nM [1]: > 6 h
Half-life ([2]; +NADPH): 0.0982 h
Half-life ([2]; −NADPH): >6 h
Half-life [3]: 2.00 min

CCCCC[C@H](O)CC[C@@H]1[C@H]2Cc3cccc(OCC(=O)NCC(=O)O)c3C[C@H]2C[C@H]1O [Prodrug VII]
thermal paw withdrawal time vs PBS group [4]: trend toward reduction in the time of response
clinical score [5]: lower values of clinical score
von Frey withdrawal force threshold vs PBS-treated group ([6]; 1 μg/mL): no statistically significant difference
von Frey withdrawal force threshold vs PBS-treated group ([6]; 100 μg/mL): statistically significant increased sensitivity
sensitivity to mechanical stimulation vs similar dose of treprostinil [6, 12]: reduced sensitivity
sensitivity to thermal stimulation ([7]; 1 μg/mL, both time-points, compared with similar dose of treprostinil): reduced sensitivity to thermal stimulation
thermal paw withdrawal time vs phosphate buffer treated group ([7]; 100 μg/mL, 15 minutes post-administration): statistically significantly faster paw withdrawal time
clinical score ([8]; 100 μg/mL (cycle 1), 15 min): non-zero
clinical score vs PBS group ([8]; 100 μg/mL (cycle 1), 90 minutes post-injection): non-zero
clinical score vs PBS group ([8]; 100 μg/mL, both time points): statistically significant increase in the clinical score
clinical score vs similar dose of treprostinil [8, 12]: reduced clinical score
diastolic blood pressure change ([9]; 0.1 mg/kg SC (for Prodrug VII)): No meaningful change
mean blood pressure change ([9]; 0.1 mg/kg SC (for Prodrug VII)): No meaningful change
systolic blood pressure change ([9]; 0.1 mg/kg SC (for Prodrug VII)): No meaningful change
body temperature change ([9]; 1 mg/kg SC): No significant changes
diastolic blood pressure change ([9]; 3 mg/kg SC): Marginally lower
diastolic blood pressure lowering persisted through ([9]; 3 mg/kg SC): 80 min
diastolic blood pressure, time of nadir ([9]; 3 mg/kg SC): 50 min
hypothermic response persisted through ([9]; 3 mg/kg SC): 4 h
mean blood pressure change ([9]; 3 mg/kg SC): Marginally lower
mean blood pressure, time of nadir ([9]; 3 mg/kg SC): 50 min
systolic blood pressure change ([9]; 3 mg/kg SC): Marginally lower
systolic blood pressure, time of nadir ([9]; 3 mg/kg SC): 50 min
diastolic hypotension persisting through ([9]; 10 mg/kg SC): approximately 4 hours
mean blood pressure hypotension persisting through ([9]; 10 mg/kg SC): approximately 4 hours
pulse pressure change ([9]; 10 mg/kg SC): Marginally higher
systolic hypotension persisting through ([9]; 10 mg/kg SC): approximately 4 hours
systolic hypotension persisting through ([9]; 30 mg/kg SC): ~6 h
time without recovery of body temperature ([9]; 30 mg/kg SC): > 24 h
body temperature change ([9]; 3, 10, and 30 mg/kg SC): Significantly lower
diastolic blood pressure change ([9]; 10 and 30 mg/kg SC): Significantly lower
diastolic blood pressure, earliest time point of lowering ([9]; 10 and 30 mg/kg SC): 20 min
diastolic blood pressure, time of nadir ([9]; 10 and 30 mg/kg SC): 40 min
mean blood pressure change ([9]; 10 and 30 mg/kg SC): Significantly lower
mean blood pressure, time of nadir ([9]; 10 and 30 mg/kg SC): 40 min
systolic blood pressure change ([9]; 10 and 30 mg/kg SC): Significantly lower
systolic blood pressure, earliest time point of lowering ([9]; 10 and 30 mg/kg SC): 20 min
systolic blood pressure, time of nadir ([9]; 10 and 30 mg/kg SC): 40 min
dose resulting in significantly lower body temperature ([9]; single SC injection): ≥ 3 mg/kg
dose resulting in significantly lower systolic, diastolic, mean arterial blood pressure ([9]; single SC injection): ≥ 3 mg/kg
heart rate change ([9]; single SC injection, all doses): Higher heart rates
clinical observations [10]: flushed body and/or extremities, piloerection, hypoactivity, reddened forelimb(s) and/or hindlimb(s), wet yellow material on the urogenital area and ventral trunk, and dried red material around nose
von Frey withdrawal force threshold vs phosphate buffer group [11]: reduced withdrawal force threshold
